Experimental data: PMC9304322, “Targeting retinoic acid receptor alpha-corepressor interaction activates chaperone-mediated autophagy and protects against retinal degeneration” (Nature Communications, 2022)
Values joined by “and” are separate entries in the source; they are usually repeats but may differ in a detail not shown here. Equal entries are not always repeated.

What was measured:
NIH3T3 = assay: Intracellular proteolysis of long half-life proteins; assay type: cell-based, mouse
Method: Confluent cells were labelled with [^3H]leucine (2μCi/ml) (NEN-PerkinElmer Life Sciences) for 48 h and then extensively washed and maintained in medium with an excess of unlabeled leucine. Proteolysis was calculated from aliquots of the medium taken at different times and precipitated in trichloroacetic acid, as the amount of acid-precipitable radioactivity transformed to acid-soluble radioactivity at each time. Where indicated cell were treated during the chase with […] leupeptin (Sigma, #108975) and […] NH4Cl (to determine lysosomal degradation) or with 100 μm MRT 68921 dihydrochloride (Tocris, #5780) (to determine macroautophagy degradation).

[1] = test system: NIH3T3 stably expressing the KFERQ-PS-Dendra; assay: CMA activity, KFERQ-PS-Dendra fluorescent reporter in NIH3T3 mouse fibroblasts; assay type: cell-based; set-up: CMA activity (Fig. 1d), MEAN / CMA activity (Fig. 1e-g), mean / CMA activity (Fig. 1d), individual experiments / CMA activity, mean (Fig. S2c, second panel) / CMA activity, mean (Fig. S2c, first panel) / CMA activity, mean (Fig. S2c, third panel): unit not given here; details: for CMA activity (Fig. 1e-g), mean: n = 4
Method: (§1) Cells were transduced with lentivirus carrying the KFERQ-PS-Dendra reporter as before. Cells were photoactivated by exposure to a 3.5 mA (current constant) light emitting diode (LED: Norlux, 405 nm) for 3 min and then plated in glass-bottom 96 well plates. At the desired times, cells were fixed with 4% PFA and imaged using high-content microscopy (Operetta system, Perkin Elmer). Images were quantified using the manufacturer’s software in a minimum of 1,200 cells in 9 independent fields per well. […] This was particularly important in the case of primary human cells where the efficiency of transduction was ~65%. To avoid confounding effects for drug-induced changes in cell volume or adherence to the plate that could bring a fraction of the cells per field outside of focus, we set a threshold to count only […] that have at least 1/10 of the average number of […] detected in the untreated wells for each cell type (3–4 puncta/cell in the case of NIH3T3 and N2a cells and 5 puncta/cell in primary human fibroblasts).

[2] = test system: neuroblastoma cell line N2a expressing the KFERQ-PS-Dendra reporter; assay: CMA activity, KFERQ-PS-Dendra reporter in N2a cells; assay type: cell-based, mouse; set-up: CMA activity, mean (Fig. S2a): unit not given here
Method: as §1

[3] = test system: primary human fibroblast expressing the KFERQ-PS-Dendra reporter; assay: CMA activity, KFERQ-PS-Dendra reporter in primary human fibroblasts; assay type: cell-based; set-up: key to CMA activity, mean (Fig. S2c): puncta per cell
Method: as §1

Cc1ccc(C2=Nc3ccc(Cl)cc3OC2)cc1 [AR7, reference compound]
duration of the increase in degradation of long-lived proteins (NIH3T3; NIH3T3, 10 μM): sustained only for the first 12 h
Lysosomal proteolysis, Mean (Fig. S3c) (NIH3T3; Time 6): 3.18
Lysosomal proteolysis, Mean (Fig. S3c) (NIH3T3; Time 12): 5.83
CMA activity (Fig. 1d), MEAN ([1]; 20 μM of each compound, n = 3 independent experiments): 1.943
CMA activity (Fig. 1d), individual experiments ([1]; 20 μM of each compound, single experiments): 1.682 and 2.334 and 1.814
CMA activity (Fig. 1e-g), mean ([1]; 12h, concentration 0.02 (unit not given)): 12.0505
CMA activity (Fig. 1e-g), mean ([1]; 12h, concentration 0.2): 11.7342
CMA activity (Fig. 1e-g), mean ([1]; 12h, concentration 2): 11.803
CMA activity (Fig. 1e-g), mean ([1]; 12h, concentration 5): 19.8949
CMA activity (Fig. 1e-g), mean ([1]; 12h, concentration 10): 20.5334
CMA activity (Fig. 1e-g), mean ([1]; 12h, concentration 20): 21.2219
CMA activity (Fig. 1e-g), mean ([1]; 12h, concentration 30): 22.9989
CMA activity (Fig. 1e-g), mean ([1]; 12h, concentration 40): 22.6487
CMA activity (Fig. 1e-g), mean ([1]; 12h, concentration 50): 26.5841
CMA activity (Fig. 1e-g), mean ([1]; 24h, concentration 0.02): 9.918
CMA activity (Fig. 1e-g), mean ([1]; 24h, concentration 0.2): 11.4731
CMA activity (Fig. 1e-g), mean ([1]; 24h, concentration 2): 13.7252
CMA activity (Fig. 1e-g), mean ([1]; 24h, concentration 5): 18.3275
CMA activity (Fig. 1e-g), mean ([1]; 24h, concentration 10): 23.1811
CMA activity (Fig. 1e-g), mean ([1]; 24h, concentration 20): 24.726
CMA activity (Fig. 1e-g), mean ([1]; 24h, concentration 30): 25.9835
CMA activity (Fig. 1e-g), mean ([1]; 24h, concentration 40): 28.2999
CMA activity (Fig. 1e-g), mean ([1]; 24h, concentration 50): 27.6884
CMA activity (Fig. 1h-j), mean, untreated (0) = 1 ([1]; concentration 0.2, 12+12w (12 h, then 12 h after washing out)): 0.9356
CMA activity (Fig. 1h-j), mean, untreated (0) = 1 ([1]; concentration 0.2, 12h): 1.057
CMA activity (Fig. 1h-j), mean, untreated (0) = 1 ([1]; concentration 0.2, 24h): 0.9789
CMA activity (Fig. 1h-j), mean, untreated (0) = 1 ([1]; concentration 2, 12+12w): 0.9942
CMA activity (Fig. 1h-j), mean, untreated (0) = 1 ([1]; concentration 2, 12h): 1.064
CMA activity (Fig. 1h-j), mean, untreated (0) = 1 ([1]; concentration 2, 24h): 1.171
CMA activity (Fig. 1h-j), mean, untreated (0) = 1 ([1]; concentration 5, 12+12w): 1.015
CMA activity (Fig. 1h-j), mean, untreated (0) = 1 ([1]; concentration 5, 12h): 1.7927
CMA activity (Fig. 1h-j), mean, untreated (0) = 1 ([1]; concentration 5, 24h): 1.564
CMA activity (Fig. 1h-j), mean, untreated (0) = 1 ([1]; concentration 10, 12+12w): 0.9858
CMA activity (Fig. 1h-j), mean, untreated (0) = 1 ([1]; concentration 10, 12h): 1.85
CMA activity (Fig. 1h-j), mean, untreated (0) = 1 ([1]; concentration 10, 24h): 1.978
CMA activity (Fig. 1h-j), mean, untreated (0) = 1 ([1]; concentration 20, 12+12w): 0.9968
CMA activity (Fig. 1h-j), mean, untreated (0) = 1 ([1]; concentration 20, 12h): 1.912
CMA activity (Fig. 1h-j), mean, untreated (0) = 1 ([1]; concentration 20, 24h): 2.11
CMA activity (Fig. 1h-j), mean, untreated (0) = 1 ([1]; concentration 30, 12+12w): 1.224
CMA activity (Fig. 1h-j), mean, untreated (0) = 1 ([1]; concentration 30, 12h): 2.072
CMA activity (Fig. 1h-j), mean, untreated (0) = 1 ([1]; concentration 30, 24h): 2.217
CMA activity, mean relative to concentration 0 = 1 (Fig. S2b) ([2]; 12+12w, concentration 0.2): 0.9288
CMA activity, mean relative to concentration 0 = 1 (Fig. S2b) ([2]; 12+12w, concentration 2): 0.9525
CMA activity, mean relative to concentration 0 = 1 (Fig. S2b) ([2]; 12+12w, concentration 5): 0.9471
CMA activity, mean relative to concentration 0 = 1 (Fig. S2b) ([2]; 12+12w, concentration 10): 0.8786
CMA activity, mean relative to concentration 0 = 1 (Fig. S2b) ([2]; 12+12w, concentration 20): 0.875
CMA activity, mean relative to concentration 0 = 1 (Fig. S2b) ([2]; 12+12w, concentration 30): 0.9362
CMA activity, mean (Fig. S2a) ([2]; 12h, concentration 0.02): 5.372
CMA activity, mean (Fig. S2a) ([2]; 12h, concentration 0.2): 5.3273
CMA activity, mean relative to concentration 0 = 1 (Fig. S2b) ([2]; 12h, concentration 0.2): 1.02
CMA activity, mean (Fig. S2a) ([2]; 12h, concentration 2): 5.394
CMA activity, mean relative to concentration 0 = 1 (Fig. S2b) ([2]; 12h, concentration 2): 1.033
CMA activity, mean (Fig. S2a) ([2]; 12h, concentration 5): 6.224
CMA activity, mean relative to concentration 0 = 1 (Fig. S2b) ([2]; 12h, concentration 5): 1.192
CMA activity, mean (Fig. S2a) ([2]; 12h, concentration 10): 5.944
CMA activity, mean relative to concentration 0 = 1 (Fig. S2b) ([2]; 12h, concentration 10): 1.138
CMA activity, mean (Fig. S2a) ([2]; 12h, concentration 20): 6.2128
CMA activity, mean relative to concentration 0 = 1 (Fig. S2b) ([2]; 12h, concentration 20): 1.19
CMA activity, mean (Fig. S2a) ([2]; 12h, concentration 30): 6.043
CMA activity, mean relative to concentration 0 = 1 (Fig. S2b) ([2]; 12h, concentration 30): 1.157
CMA activity, mean (Fig. S2a) ([2]; 12h, concentration 40): 6.596
CMA activity, mean (Fig. S2a) ([2]; 12h, concentration 50): 6.394
CMA activity, mean (Fig. S2a) ([2]; 12h, concentration 60): 6.271
CMA activity, mean (Fig. S2a) ([2]; 24h, concentration 0.02): 5.48
CMA activity, mean (Fig. S2a) ([2]; 24h, concentration 0.2): 5.351
CMA activity, mean relative to concentration 0 = 1 (Fig. S2b) ([2]; 24h, concentration 0.2): 0.8724
CMA activity, mean (Fig. S2a) ([2]; 24h, concentration 2): 5.879
CMA activity, mean relative to concentration 0 = 1 (Fig. S2b) ([2]; 24h, concentration 2): 0.9586
CMA activity, mean (Fig. S2a) ([2]; 24h, concentration 5): 6.0743
CMA activity, mean relative to concentration 0 = 1 (Fig. S2b) ([2]; 24h, concentration 5): 0.9904
CMA activity, mean (Fig. S2a) ([2]; 24h, concentration 10): 6.105
CMA activity, mean relative to concentration 0 = 1 (Fig. S2b) ([2]; 24h, concentration 10): 0.9953
CMA activity, mean (Fig. S2a) ([2]; 24h, concentration 20): 6.658
CMA activity, mean relative to concentration 0 = 1 (Fig. S2b) ([2]; 24h, concentration 20): 1.086
CMA activity, mean (Fig. S2a) ([2]; 24h, concentration 30): 7.455
CMA activity, mean relative to concentration 0 = 1 (Fig. S2b) ([2]; 24h, concentration 30): 1.2156
CMA activity, mean (Fig. S2a) ([2]; 24h, concentration 40): 8.122
CMA activity, mean (Fig. S2a) ([2]; 24h, concentration 50): 8.426
CMA activity, mean (Fig. S2a) ([2]; 24h, concentration 60): 8.941
CMA activity, mean (Fig. S2c) ([3]; concentration 0.02): 24.0456
CMA activity, mean (Fig. S2c) ([3]; concentration 0.2): 28.2677
CMA activity, mean (Fig. S2c) ([3]; concentration 2): 18.5469
CMA activation in human cells ([3]; in words): very discrete
